Experimental data reported in US6545028B2, “Chemical compounds having ion channel blocking activity for the treatment of immune dysfunction” (NeuroSearch A/S, priority 1997, dated 2003).

Experiments:
T cells = assay: Inhibition of antigen induced T cell proliferation ([^3H]thymidine incorporation); format: cell-based; settings: Antigen (crude Candida albicans extract, 10 μg/ml), 144 hours culture
Method: The chemical compounds used according to the invention prevent immunological proliferation by selective inhibition of the Ca^2+-activated K-channels in T- and B-lymphocytes. This effect may be verified using various proliferation assays. In this experiment the proliferative assay described by Ødum et al. [Ødum N, Kanner S B, Ledbetter J A, & Svejgaard A; J. Immunol. 1993 150 (12) 5289-5298] was used.
Assays were performed in culture medium (RPMI 1640; available from Gibco, Grand island, N.Y.) supplemented with 10% pooled human serum, 2 mM L-glutamine, 100 μg/ml penicillin, and 100 μg/ml streptomycin (available from Novo Nordisk, Copenhagen, Denmark) in 96-well round bottom tissue culture plates (available from Nunc, Roskilde, Denmark) with a final volume of 200 μl.
T cells were preincubated for three hours with the test compounds before addition of antigen (crude Candida albicans extract, 10 μg/ml). T cells were cultured at 5×10^4 cells/well for 144 hours. Twelve hours before harvest, [^3H]thymidine ([…]) was added. The cells were harvested onto glass fibre filters, and the [^3H]thymidine incorporation was measured in a scintillation counter. The results were expressed as mean counts per minute (cpm) from triplicate cultures.

[1] = molecular target: human placenta Ca^2+-activated, intermediate conductance potassium channel protein (IKCa) (Homo sapiens, UniProt O15554); assay: Whole cell patch clamp on HEK293 or CHO cells transfected with the human IKCa channel; format: cell-based; settings: 1 μM Clotrimazole added to the bath solution; reversed by washout
Method: HEK293 or CHO tissue culture cells were grown in DMEM (Dulbecco's Modified Eagle Medium) supplemented with 10% FCS (foetal calf serum) at 37° C. in 5% CO2. One day prior to transfection, 10^6 cells were plated in a cell culture T25 flask. The following day, cells were transfected using lipofection (20 μL Lipofectamin™, Life Technologies, with 2.5 μg of the plasmid pNS2Z_hIK2 in a total volume of 540 μL). The lipofection mixture was overlaid on the cells and incubated at 37° C. for 5 hours.
The cells were then rinsed with regular media and plated to a 30 mm culture dish. 18-48 hours after, transfected cells were assayed for the presence of Ca^2+-activated, intermediate conductance potassium channel protein by electrophysiological measurements.
Whole cell currents were recorded using a pipette solution of 144 mM KCl, 1 mM EGTA, 9 mM NTA, 1.085 mM CaCl2, 5.54 mM MgCl2, and 10 mM HEPES (pH 7.2) and a bath solution of 144 mM KCl, 2 mM CaCl2, 1 mM MgCl2, 0.01% (w/v) BSA and 10 mM HEPES (pH=7.4). Current traces were recorded from cells containing human Ca^2+-activated, intermediate conductance potassium channels after application of voltage ramps (−100 mV to +100 mV, 200 ms duration).

Compound	T Cell Proliferation (T cells; test compound 1 μM) [cpm × 10^−3]	T Cell Proliferation (T cells; test compound 5 μM) [cpm × 10^−3]	T Cell Proliferation (T cells; test compound 10 μM) [cpm × 10^−3]	Effect on the Ca^2+-activated potassium current [1]
Clc1ccccc1C(c1ccccc1)(c1ccccc1)n1ccnc1 [Clotrimazole, 1-[(2-chlorophenyl)-diphenyl-methyl]-1H-imidazole]	5.8	4.2	1.8	inhibition of the Ca^2+-activated potassium current
CCOC(=O)C1=C(C)NC(C)=C(C(=O)OC)C1c1cccc([N+](=O)[O-])c1 (stereo not shown) [Nitrendipine, 1,4-dihydro-2,6-dimethyl-4-(3-nitrophenyl)pyridine-3,5-dicarboxylic acid ethyl methyl ester]	5.6	3.8	4.0	–
